According to patent US8546323B2, “Thrombospondin-1 derived peptides and treatment methods” (priority 2005, dated 2013):
Entries after “also recorded” stand apart in the source; their conditions may differ.

Assays:
[1] = system: MMP-9; experiment: transient transfection of RAW macrophage cells, active MMP-9/total MMP-9 ELISA; format: cell-based, mouse; conditions: RAW cells transiently transfected with TSP-1 or TSP-1 mutant; for mutants: fate of the TSP-1 effect
Text: (§1) (A) There are two putative β2 integrin binding domain in TSR-1 and TSR-2. Note that these two binding domains are adjacent (and overlap by one amino acid) the two binding domains for TGF-β1. We have mutated the two DxGW motifs as shown in the box. […] This effect is abolished by TSP mutants: DM and less so by Mut1. […] This affect is abolished with both TSP-1 mutants Mut1 and Mut2. In summary the DxGW motif in TSR-1 and TSR-2 appear to mediate the effects on of TSP-1 on TGF-β1 activation and MMP-9 inhibition in this cell assay system.
We have shown TSP-1 binding, to macrophages through the same motif and we postulate one potential mechanism for TSP-1 inhibition, of MMP-9 activity may involve displacement of pro-MMP-9 from cell surface (FIG. 7) by competition for binding. To test this hypothesis we generated various mutants of TSP-1 involving either or both potential β2-intergin binding motif in TSP-1 (FIG. 2). […] This effect was reversed by mutation of the TSR-1 motif but less so with mutation of the TSR-2 motif.

[2] = system: TGF-β1; experiment: transient transfection of RAW macrophage cells, luciferase induction via TGF-β1 promoter responsive element; format: cell-based, mouse; conditions: RAW cells transiently transfected with TSP-1 or TSP-1 mutant; cell lysate luciferase; for mutants: fate of the TSP-1 effect
Text: as §1
Furthermore, using our mutants we have observed that WSPW (SEQ ID NO: 9) motif in TSR-2 is primarily responsible for TGF-β1 activation by TSP-1.

[3] = system: binding of TSP-1 to macrophages; experiment: cell adhesion assay: macrophage adhesion to TSP-1-coated wells, competition by peptides; format: cell-based, murine; conditions: wells pre-plated with TSP-1 (40 microg./ml); cells mixed with peptide (0.01M) for 30 minutes
Protocol: For the peptide experiment, the cells were mixed in suspension with respective peptide (0.01M) for 30 minutes prior to being introduced to TSP-1 wells.
TSP-1 has multiple potential binding sites for binding macrophages including CD44, IAP, and CD36 (FIG. 1). However there has been no previously established β2-integrin binding motif described in TSP-1. A prior-study using phage sequence assays has reported that the peptide motif D(D/E)(G/L)W (SEQ ID NO: 7) competes with pro-MMP-9 binding to β2-integrin [40]. Through a sequence search of the complete TSP-1 peptide sequence we have determined that TSP-1 has two such putative β2 integrin binding sites: one in TSR-1-(DDGW (SEQ ID NO: 3), a perfect consensus) and another in TSR-2 (DGGW SEQ ID NO: 3), a close consensus with substitution in position 2) as shown in FIG. 2. We have used cell adhesion assay to assess binding of TSP-1 to macrophages (FIG. 6). Using this assay we have been able to show the impact of the D-Xaa-G-W (SEQ ID NO: 5) motif in TSP-1 adhesion to macrophages.

[4] = system: MMP-9; experiment: synthetic peptide in tissue culture: inhibition of MMP-9 activation; format: cell-based
Text: (§2) As such we have identified the two active sites in TSP-1 important for both (1) decreasing MMP-9 activity (2) and activating TGF-β1. Using this knowledge, many peptides having plaque stabilizing properties can be designed and synthesized. We designed and synthesized a representative synthetic sequence combining these two active sites: KRFKQDDGWSPWSEW (SEQ ID NO: 10).

[5] = system: atherosclerotic plaque; experiment: peptide infusion in apoE−/− mice, atherosclerotic plaque; format: in vivo, mouse
[6] = molecular target: T1, TGF-β1 (Mus musculus, UniProt P04202); experiment: synthetic peptide in tissue culture: TGF-β1 activation; format: cell-based
T1 construct: endogenous in cells; host or cells: Tissue culture
T1 sequence (P04202 30-278 limits assumed): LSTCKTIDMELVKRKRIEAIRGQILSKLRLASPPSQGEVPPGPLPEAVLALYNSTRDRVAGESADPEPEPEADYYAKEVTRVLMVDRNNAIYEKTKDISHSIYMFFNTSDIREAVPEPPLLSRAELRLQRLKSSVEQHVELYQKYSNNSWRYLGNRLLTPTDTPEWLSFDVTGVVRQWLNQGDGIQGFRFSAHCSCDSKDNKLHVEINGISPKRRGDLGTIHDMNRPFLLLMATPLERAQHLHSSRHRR
Text: as §2

[7] = system: atherosclerotic plaque; experiment: peptide infusion (alzet pump) in TSP−/−ApoE−/− mice, atherosclerotic lesion composition; format: in vivo, mouse
Text: Generally, “stabilized plaque” is evidenced by limited inflammation at the site of the lesion and/or significant fibrosis within the plaque. These features may be observed by a comparison a TSP-1 deficient control system such as the TSP−/− mice described above. Generally, stabilized plaque may be identified by a comparison of fibrosis and inflammation in treated and untreated animals. The balance between fibrosis and inflammation within the plaque has been a well accepted surrogate marker for propensity of plaque to rupture in multiple different animal models.

[8] = system: TGF-β1; conditions: TSP-1 knockout mouse; cited from earlier work
[9] = 8-25 μg per day for 5 weeks, versus untreated TSP−/− mice

With “TSP-1: matricellular protein thrombospondin-1, a trimer with a chain molecular mass of 150 kda” the “MMP-9 activity (active MMP-9/total MMP-9), conversion of pro-MMP-9 to the active form” value [1] was “decreases MMP-9 activity; also recorded: decreased conversion of pro-MPP-9 to the active form” and the TGF-β1 activity [2] was “increases TGF-β1 activity; also recorded: activates TGF-β1”.

With DDGA (DGGW) the “interference with macrophage adhesion to TSP-1” value (“interference” for short) [3] was “lack of interference”.

In the case of KRFKQDDGWSPWSEW, the “ability to inhibit activation of MMP-9” value [4] is reported as “inhibit activation of MMP-9”, the “plaque stabilization in presence of endogenous TSP-1” value [5] is reported as “beneficial effect” and the “ability to activate TGF-β1” value [6] is reported as “activate TGF-β1”. The “inflammation (macrophages) in the intimal lesion” value [7, 9] was “decreased inflammation (macrophages) in the intimal lesion”, the “lipid deposition within the intimal lesions” value [7, 9] was “decreased lipid deposition within the intimal lesions” and the “matrix (collagen and elastin) deposition within the lesion” value [7, 9] was “increased matrix (as measured by collagen and elastin) deposition within the lesion”. The “rescue of the phenotype of TSP−/−ApoE−/− mice (decrease macrophages, increase matrix within the lesion)” value ([7]; alzet infusion pump, 8-25 μg per day for 5 weeks) was “sufficient to rescue the phenotype” and the plaque stabilizing activity ([7]; mouse model of atherosclerosis) was “active in stabilizing plaque”.

For ADGW, the “interference” value [3] was “partial interference”.

In the case of KRFK, the “rescue of TSP-1 knockout phenotype (localized alveolar inflammation and chronic pneumonia)” value [8] is listed as “rescues this phenotype”.

With DDGW the “interference” value [3] was “sufficient to inhibit cell adhesion to TSP-1”.
